Results reported in patent US7435557B2 (priority 2002, dated 2008).

Assays:
[1] = test system: GTP cyclohydrolase II; assay: GTP cyclohydrolase activity assay coupled to formate dehydrogenase (NADH formation, absorption at 340 nm); type: biochemical, Ashbya gossypii; conditions: cell free extract, 2.5 mM GTP, 0.5 mM NAD, 2 units/ml formate dehydrogenase; FIG. 1
Method: Ashbya gossypii cells may be obtained after 2 days from a culture in 3% (w/v) malt extract +0.3% (w/v) difco-soyton, pH 5.6 at 28° C. A cell-free extract can be obtained by mechanical breakage of the cells with a kitchen blender in 50 mM imidazole buffer pH 7 containing 1 mM EDTA-Na salt, 5 mM MgSO4, 10 mM KCl, 5 mM dithiothreitol and 30% (v/v) glycerol and separation of unbroken cells and debris by centrifugation.
(§1) The assay is performed in a suitable buffer e.g. Tris/HCl, pH 7.8 including 1 mM Mg.Cl2, 1 mM DTT, 0.5 mM NAD, 2 units/ml formate dehydrogenase and 2.5 mM GTP Li salt. After the addition of the GTP cyclohydrolase comprising cell free extracts of step A), the reaction was monitored by measuring the absorption at 340 nm.
After dissolving the respective candidate compounds in a suitable solvent e.g. DMSO, an aliquot of the afore made solution is added to the reaction mixture. The enzyme activity of this sample is compared with the activity of a control comprising the pure solvent instead of the candidate compound. The resulting relative activity was calculated as percent inhibition in relation to the sample without the candidate compound.
In FIG. 1, the GTP dependant formation of NADH in the reaction mixture and inhibition by 3-Butyl-10-(3-chlorophenyl)-10H-pyrimido[4,5-b]quinoline-2,4-dione is shown.

[2] = test system: formate dehydrogenase; assay: Specificity control: substrate GTP replaced with formic acid; type: biochemical; conditions: formate instead of GTP; FIG. 2
Method: as §1
To distinguish between the inhibition of GTP cyclohydrolase and formate dehydrogenase in the above-mentioned assay, the subtrate GTP is replaced with formic acid.

[3] = test system: Pyricularia oryzae; type: cell-based; conditions: 125 ppm compound solution, 50 μl + 50 μl spore suspension, 18° C., 7 days, 405 nm
[4] = test system: Phytophthora infestans; type: cell-based; conditions: 125 ppm compound solution, 50 μl + 50 μl spore suspension, 18° C., 7 days, 405 nm
[5] = test system: Septoria tritici; type: cell-based; conditions: 18° C., 7 days; 405 nm

CCCCn1c(=O)nc2n(-c3cccc(Cl)c3)c3ccccc3cc-2c1=O [3-butyl-10-(3-chlorophenyl)-10H-pyrimido[4,5-b]quinoline-2,4-dione]
inhibition of GTP dependent formation of NADH [1]: inhibition | inhibition of formate dehydrogenase alone [2]: No inhibition | % growth compared with the 0 ppm control [3]: 47.6% | % growth compared with the 0 ppm control [4]: 39.9% | % growth compared with the 0 ppm control [5]: 0%
